Experimental data published in article PMC6048268, “Resveratrol Inhibits Key Steps of Steroid Metabolism in a Human Estrogen-Receptor Positive Breast Cancer Model: Impact on Cellular Proliferation” (Frontiers in Pharmacology, 2018).
Where two headings read alike, the source gives them in different places.

Experiments:
[1] = target: estrogen sulfation, S9 fractions from human jejunum; design: method as in Furimsky et al. (2008); settings: ref Furimsky et al. (2008), read-out: Ki, inhibition of estrogen sulfation; cited from earlier work
[2] = test system: steroid metabolism in MCF-7 cells; assay: Inhibition of steroid metabolism by RES in MCF-7 cells (LC–HRMS); settings: for inhibition at 10 µM: Homo sapiens, MCF7, 48 h; for Ki: MCF-7, Dixon plot
Procedure: (§1) Briefly, cartridges were preconditioned with 2 × 1.0 ml acetonitrile and 3 × 1.0 ml ammonium acetate buffer (10 mM, pH = 5.0), and the samples were loaded onto the columns. After washing with 1 × 1.0 ml ammonium acetate buffer (10 mM, pH = 5.0) and 2 × 1.0 ml acetonitrile/ammonium acetate buffer (10 mM, pH 5.0) 10:90 (v/v), the analytes were eluted using 2 × 650 μl acetonitrile/ammonium acetate buffer (10 mM, pH = 5.0) 95:5 (v/v) and evaporated until dry. Subsequently, samples were reconstituted in 270 μl acetonitrile/ammonium acetate buffer (10 mM, pH = 5.0) 25:75 (v/v) and stored at -80°C until further LC–HRMS analysis.
After media collection, cell monolayers were washed five times with 2.0 ml DPBS, detached using 400 μl TrypLE® solution (37°C, 5 min), mixed with 600 μl DPBS and transferred into sample vials. Aliquots of these suspensions (100 μl each) were diluted and counted using the Casy® TT Cell Counter to determine the exact number of cells per sample well. The remaining cell suspensions (900 μl each) were gently centrifuged (1000 rpm, 8 min), and the supernatants were discarded. The cell pellets were subsequently resuspended in 100 μl aqueous ammonium acetate buffer (10 mM, pH = 5.0) and lysed by five freeze-thaw-cycles in liquid nitrogen (3 min each), followed by thawing at ambient temperature. Ammonium acetate buffer (1000 μl) was added, and the suspensions were centrifuged (14000 rpm, 5 min). Subsequently, the supernatants were concentrated using the same SPE protocol as described above. All processed samples were then stored at -80°C until further LC–HRMS analysis. For each condition, three biologically independent experiments were performed; the reported values represent the overall means ± SD of all values.
LC was performed with an UltiMate 3000 RSLC-series system coupled to a maXis HD ESI-Qq-TOF mass spectrometer (Bruker Corporation, Bremen, Germany). A Phenomenex Luna® 3 μm C18(2) 100 Å LC column (250 mm × 4.6 mm I.D.; Phenomenex, Inc., Torrance, CA, United States), preceded by a Hypersil® BDS-C18 guard column (5 μm, 10 mm × 4.6 mm I.D.; Thermo Fisher Scientific, Inc.) was used for the separation of the analytes at a flow rate of 1.0 ml/min and a temperature of 43°C. […] The ESI ion source settings were as follows: capillary voltage: -4.5 kV; dry gas flow rate: 8.0 l/min N2; nebulizer: 1.0 bar N2; and dry temperature: 200°C. The ion transfer parameters were set to 400 Vpp funnel RF and 300 Vpp multipole RF, the quadrupole ion energy was 8.0 eV, and the collision cell parameters were as follows: collision RF, 1100 Vpp; collision energy, 10.0 eV; transfer time, 38 μs; and pre-pulse storage, 18 μs. In the range of m/z 150–500, full-scan mass spectra were recorded.
(§2) The modes of inhibition were subsequently determined from Lineweaver–Burk plots, and the corresponding Ki values were calculated from Dixon plots using GraphPad Prism 6.0.

SULT1A1 mRNA = assay: Real-time PCR, SULT1A1 mRNA expression in MCF-7 cells; format: cell-based, human; settings: 10 μM RES; for down-regulation of SULT1A1 mRNA: non-significant
Procedure: MCF-7 breast cancer cells were seeded in 6-well plates at a density of 1.0 × 10^6 cells per well and allowed to attach overnight. […] Expression profiling of genes of interest was performed as detailed previously ([Mechtcheriakova et al., 2007]; [Meshcheryakova et al., 2016]). Upon treatment, total RNA was isolated using peqGOLD TriFAST^TM reagent (VWR, Vienna, Austria) according to the manufacturer’s protocol. 1 μg RNA was used for cDNA generation using the High Capacity cDNA Reverse Transcription Kit (Thermo Fisher Scientific, Inc.) according to the instructions of the manufacturer. Real-time PCR analysis was performed in the 96-well plate format on a QuantStudio 12K Flex Real-Time PCR System (Thermo Fisher Scientific, Inc.). SULT1A1 and SULT2A1 were detected using the corresponding TaqMan Assays (Thermo Fisher Scientific, Inc.). […] HKGs primers were self-designed using the Primer Express 3.0 software (Thermo Fisher Scientific, Inc.) and validated using the Human Total RNA Master Panel (TaKaRa Bio, Inc., Saint-Germain-en-Laye, France), as described before ([Mechtcheriakova et al., 2007], [2011]); Primers: UBC forward: […]; UBC reverse: […]; GAPDH forward: […]; GAPDH reverse: […]; ACTB forward: […]; ACTB reverse: […]. For relative quantification, data were analyzed by applying the ΔΔCT method. Expression levels of target genes were normalized to the average of the HKGs and shown relative to unstimulated cells (0 h time-point).

E2 levels = test system: E2 levels; design: method as in El-Sayed and Bayan, 2015; settings: mice, 4 mg/kg i.p. for 7 days; ref El-Sayed and Bayan, 2015; cited from earlier work
serum E2 concentrations = test system: serum E2 concentrations; design: method as in Chow et al., 2014; settings: post-menopausal women, 1 g RES once a day for 12 weeks, non-significant; ref Chow et al., 2014; cited from earlier work
[3] = test system: steroid metabolism in MDA-MB-231 cells; assay: Inhibition of steroid metabolism by RES in MDA-MB-231 cells (LC–HRMS); format: cell-based, human; settings: MDA-MB-231, 100 μM RES, 100 nM DHEA or E1, 48 h
Procedure: as §1
After media collection, cell monolayers were washed five times with 2.0 ml DPBS, detached using 400 μl TrypLE® solution (37°C, 5 min), mixed with 600 μl DPBS and transferred into sample vials. Aliquots of these suspensions (100 μl each) were diluted and counted using the Casy® TT Cell Counter to determine the exact number of cells per sample well. […]
LC was performed with an UltiMate 3000 RSLC-series system coupled to a maXis HD ESI-Qq-TOF mass spectrometer (Bruker Corporation, Bremen, Germany). […] In the range of m/z 150–500, full-scan mass spectra were recorded.
as §2

[4] = MCF-7, 100 μM RES, 100 nM DHEA, 48 h
[5] = MCF-7, 100 μM RES, 100 nM E1, 48 h

Oc1ccc(/C=C/c2cc(O)cc(O)c2)cc1 [RES, 3,5,4′-trihydroxy-trans-stilbene]
Ki [1]: 600 nM
inhibition at 10 µM ([2]; read-out: inhibition of E1 sulfation): 91.6 ± 1.1%
inhibition at 10 µM ([2]; read-out: inhibition of E2 sulfation): 90 ± 1%
increase in AD concentrations [2, 4]: 141.0%
increase in T levels [2, 4]: 305.9%
reduction of mean formation of DHEA-S [2, 4]: 87.7%
increase in unconjugated E2 concentrations [2, 5]: 101.6%
reduction of mean formation of E1-S [2, 5]: 99.1%
reduction of mean formation of E2-G [2, 5]: 89.7%
reduction of mean formation of E2-S [2, 5]: 98.8%
mode of inhibition of conjugate formation ([2]; MCF-7, Lineweaver–Burk and Dixon plots, all conjugates): non-competitive
Ki ([2]; read-out: Ki, inhibition of DHEA-S formation, DHEA precursor): 13200 ± 200 nM
Ki ([2]; read-out: Ki, inhibition of E1-S formation, E1 precursor): 940 ± 30 nM
Ki ([2]; read-out: Ki, inhibition of E2-G formation, E1 precursor): 7920 ± 240 nM
Ki ([2]; read-out: Ki, inhibition of E2-S formation, E1 precursor): 730 ± 70 nM
down-regulation of SULT1A1 mRNA (SULT1A1 mRNA; 24 h): 23.6 ± 13.0%
down-regulation of SULT1A1 mRNA (SULT1A1 mRNA; 48 h): 30.4 ± 11.0%
effect on transcription of SULT1A1 (SULT1A1 mRNA; up to 4 h): did not affect
increase in E2 levels (E2 levels): approximately twofold increase
increase in serum E2 concentrations (serum E2 concentrations): 22.4%
effect on formation of DHEA-S, E1-S, E2-S and E2-G [3]: did not affect
effect on formation of unconjugated AD, T and E2 [3]: no significant influence
